Results published in the supplement of paper PMC10307832.

Legend:
Assay in all cases: relative viability (nuclei count vs DMSO), 5 days (fraction); higher = more cells survive
[1] = compound: C1=CC=C(C(=C1)C2=CC=C(C=C2)C3=CSC4=C3C(=C(C(=O)N4)C#N)O)O + O=C(CCCCCCC(=O)Nc1ccccc1)NO [Vorinostat] (partner 1 µM)
Procedure, shortened: (§1)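 Each reported value is a median over duplicate plates. It expresses relative viability: treated-well nuclei count divided by vehicle-well nuclei count. Lung cancer cell lines in 1536-well plates were dosed by pin tool a day after seeding, alone with one drug or with a fixed anchor-drug dose plus five library-drug doses (not always all listed) in √10 steps, and nuclei were counted after 5 days.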

TGX 221 + Pictilisib = compound: CC1=CN2C(=O)C=C(N=C2C(=C1)C(C)NC3=CC=CC=C3)N4CCOCC4 [TGX 221] + CS(=O)(=O)N1CCN(Cc2cc3nc(-c4cccc5[nH]ncc45)nc(N4CCOCC4)c3s2)CC1 [Pictilisib] (partner 1 µM)
Procedure, shortened: as §1

[2] = compound: C1=CC=C(C(=C1)C2=CC=C(C=C2)C3=CSC4=C3C(=C(C(=O)N4)C#N)O)O + Nc1nc2[nH]cc(CCc3ccc(C(=O)N[C@@H](CCC(=O)O)C(=O)O)cc3)c2c(=O)[nH]1 [Pemetrexed] (partner 0.2 µM)
Procedure, shortened: as §1

[3] = compound: C1=CC=C(C(=C1)C2=CC=C(C=C2)C3=CSC4=C3C(=C(C(=O)N4)C#N)O)O + COc1cccc2cc(-c3nc([C@H]4CC[C@H](C(=O)O)CC4)n4ncnc(N)c34)[nH]c12 [OSI-027] (partner 0.5 µM)
Procedure, shortened: as §1

NCI-H3122
relative viability ([1]; first compound 0.08 µM): 1
relative viability ([1]; first compound 0.253 µM): 0.992
relative viability ([1]; first compound 0.8 µM): 1.14
relative viability ([1]; first compound 2.53 µM): 1.09
relative viability ([1]; first compound 8 µM): 0.89
relative viability (TGX 221 + Pictilisib; first compound 0.08 µM): 0.619
relative viability (TGX 221 + Pictilisib; first compound 0.253 µM): 0.581
relative viability (TGX 221 + Pictilisib; first compound 0.8 µM): 0.635
relative viability (TGX 221 + Pictilisib; first compound 2.53 µM): 0.574
relative viability (TGX 221 + Pictilisib; first compound 8 µM): 0.581
relative viability ([2]; first compound 0.08 µM): 0.19
relative viability ([2]; first compound 0.253 µM): 0.201
relative viability ([2]; first compound 0.8 µM): 0.22
relative viability ([2]; first compound 2.53 µM): 0.213
relative viability ([2]; first compound 8 µM): 0.19
relative viability ([3]; first compound 0.08 µM): 0.836
relative viability ([3]; first compound 0.253 µM): 1.07
relative viability ([3]; first compound 0.8 µM): 1.09
relative viability ([3]; first compound 2.53 µM): 1.33
relative viability ([3]; first compound 8 µM): 0.774

PC-3 [JPC-3]
relative viability ([1]; first compound 0.08 µM): 0.809
relative viability ([1]; first compound 0.253 µM): 0.909
relative viability ([1]; first compound 0.8 µM): 0.758
relative viability ([1]; first compound 2.53 µM): 0.658
relative viability ([1]; first compound 8 µM): 0.662
relative viability (TGX 221 + Pictilisib; first compound 0.08 µM): 0.642
relative viability (TGX 221 + Pictilisib; first compound 0.253 µM): 0.73
relative viability (TGX 221 + Pictilisib; first compound 0.8 µM): 0.772
relative viability (TGX 221 + Pictilisib; first compound 2.53 µM): 0.748
relative viability (TGX 221 + Pictilisib; first compound 8 µM): 0.754
relative viability ([2]; first compound 0.08 µM): 1.08
relative viability ([2]; first compound 0.253 µM): 1.19
relative viability ([2]; first compound 0.8 µM): 1.06
relative viability ([2]; first compound 2.53 µM): 0.942
relative viability ([2]; first compound 8 µM): 0.98
relative viability ([3]; first compound 0.08 µM): 0.637
relative viability ([3]; first compound 0.253 µM): 0.777
relative viability ([3]; first compound 0.8 µM): 0.704
relative viability ([3]; first compound 2.53 µM): 0.93
relative viability ([3]; first compound 8 µM): 0.719

PC-14
relative viability ([1]; first compound 0.08 µM): 0.64
relative viability ([1]; first compound 0.253 µM): 0.863
relative viability ([1]; first compound 0.8 µM): 0.563
relative viability ([1]; first compound 2.53 µM): 0.71
relative viability ([1]; first compound 8 µM): 0.567
relative viability (TGX 221 + Pictilisib; first compound 0.08 µM): 0.695
relative viability (TGX 221 + Pictilisib; first compound 0.253 µM): 0.61
relative viability (TGX 221 + Pictilisib; first compound 0.8 µM): 0.612
relative viability (TGX 221 + Pictilisib; first compound 2.53 µM): 0.685
relative viability (TGX 221 + Pictilisib; first compound 8 µM): 0.625
relative viability ([2]; first compound 0.08 µM): 0.151
relative viability ([2]; first compound 0.253 µM): 0.156
relative viability ([2]; first compound 0.8 µM): 0.153
relative viability ([2]; first compound 2.53 µM): 0.125
relative viability ([2]; first compound 8 µM): 0.146
relative viability ([3]; first compound 0.08 µM): 0.924
relative viability ([3]; first compound 0.253 µM): 0.986
relative viability ([3]; first compound 0.8 µM): 0.874
relative viability ([3]; first compound 2.53 µM): 0.978
relative viability ([3]; first compound 8 µM): 0.46

RERF-LC-KJ
relative viability ([1]; first compound 0.08 µM): 0.639
relative viability ([1]; first compound 0.253 µM): 0.763
relative viability ([1]; first compound 0.8 µM): 0.751
relative viability ([1]; first compound 2.53 µM): 0.714
relative viability ([1]; first compound 8 µM): 0.544
relative viability (TGX 221 + Pictilisib; first compound 0.08 µM): 0.488
relative viability (TGX 221 + Pictilisib; first compound 0.253 µM): 0.57
relative viability (TGX 221 + Pictilisib; first compound 0.8 µM): 0.551
relative viability (TGX 221 + Pictilisib; first compound 2.53 µM): 0.466
relative viability (TGX 221 + Pictilisib; first compound 8 µM): 0.481
relative viability ([2]; first compound 0.08 µM): 0.468
relative viability ([2]; first compound 0.253 µM): 0.521
relative viability ([2]; first compound 0.8 µM): 0.485
relative viability ([2]; first compound 2.53 µM): 0.441
relative viability ([2]; first compound 8 µM): 0.552
relative viability ([3]; first compound 0.08 µM): 0.562
relative viability ([3]; first compound 0.253 µM): 0.755
relative viability ([3]; first compound 0.8 µM): 0.561
relative viability ([3]; first compound 2.53 µM): 0.551
relative viability ([3]; first compound 8 µM): 0.457

SK-LU-1
relative viability ([1]; first compound 0.08 µM): 0.737
relative viability ([1]; first compound 0.253 µM): 0.727
relative viability ([1]; first compound 0.8 µM): 0.655
relative viability ([1]; first compound 2.53 µM): 0.761
relative viability ([1]; first compound 8 µM): 0.671
relative viability (TGX 221 + Pictilisib; first compound 0.08 µM): 0.601
relative viability (TGX 221 + Pictilisib; first compound 0.253 µM): 0.536
relative viability (TGX 221 + Pictilisib; first compound 0.8 µM): 0.576
relative viability (TGX 221 + Pictilisib; first compound 2.53 µM): 0.553
relative viability (TGX 221 + Pictilisib; first compound 8 µM): 0.568
relative viability ([2]; first compound 0.08 µM): 0.933
relative viability ([2]; first compound 0.253 µM): 0.943
relative viability ([2]; first compound 0.8 µM): 0.918
relative viability ([2]; first compound 2.53 µM): 1.03
relative viability ([2]; first compound 8 µM): 0.806
relative viability ([3]; first compound 0.08 µM): 0.342
relative viability ([3]; first compound 0.253 µM): 0.369
relative viability ([3]; first compound 0.8 µM): 0.276
relative viability ([3]; first compound 2.53 µM): 0.397
relative viability ([3]; first compound 8 µM): 0.3

SK-MES-1
relative viability ([1]; first compound 0.08 µM): 1.1
relative viability ([1]; first compound 0.253 µM): 1.17
relative viability ([1]; first compound 0.8 µM): 0.911
relative viability ([1]; first compound 2.53 µM): 1.06
relative viability ([1]; first compound 8 µM): 0.923
relative viability (TGX 221 + Pictilisib; first compound 0.08 µM): 0.406
relative viability (TGX 221 + Pictilisib; first compound 0.253 µM): 0.363
relative viability (TGX 221 + Pictilisib; first compound 0.8 µM): 0.304
relative viability (TGX 221 + Pictilisib; first compound 2.53 µM): 0.328
relative viability (TGX 221 + Pictilisib; first compound 8 µM): 0.289
relative viability ([2]; first compound 0.08 µM): 1.02
relative viability ([2]; first compound 0.253 µM): 1.03
relative viability ([2]; first compound 0.8 µM): 1.02
relative viability ([2]; first compound 2.53 µM): 0.987
relative viability ([2]; first compound 8 µM): 1.02
relative viability ([3]; first compound 0.08 µM): 0.711
relative viability ([3]; first compound 0.253 µM): 0.666
relative viability ([3]; first compound 0.8 µM): 0.562
relative viability ([3]; first compound 2.53 µM): 0.67
relative viability ([3]; first compound 8 µM): 0.419

SW 1573
relative viability ([1]; first compound 0.08 µM): 0.701
relative viability ([1]; first compound 0.253 µM): 0.723
relative viability ([1]; first compound 0.8 µM): 0.716
relative viability ([1]; first compound 2.53 µM): 0.76
relative viability ([1]; first compound 8 µM): 0.59
relative viability (TGX 221 + Pictilisib; first compound 0.08 µM): 0.489
relative viability (TGX 221 + Pictilisib; first compound 0.253 µM): 0.458
relative viability (TGX 221 + Pictilisib; first compound 0.8 µM): 0.43
relative viability (TGX 221 + Pictilisib; first compound 2.53 µM): 0.461
relative viability (TGX 221 + Pictilisib; first compound 8 µM): 0.467
relative viability ([2]; first compound 0.08 µM): 0.61
relative viability ([2]; first compound 0.253 µM): 0.982
relative viability ([2]; first compound 0.8 µM): 0.788
relative viability ([2]; first compound 2.53 µM): 0.851
relative viability ([2]; first compound 8 µM): 0.728
relative viability ([3]; first compound 0.08 µM): 0.618
relative viability ([3]; first compound 0.253 µM): 0.821
relative viability ([3]; first compound 0.8 µM): 0.657
relative viability ([3]; first compound 2.53 µM): 0.54
relative viability ([3]; first compound 8 µM): 0.391

UMC-11
relative viability ([1]; first compound 0.253 µM): 0.352
relative viability ([1]; first compound 0.8 µM): 0.409
relative viability ([1]; first compound 2.53 µM): 0.381
relative viability ([1]; first compound 8 µM): 0.412
relative viability (TGX 221 + Pictilisib; first compound 0.08 µM): 0.742
relative viability (TGX 221 + Pictilisib; first compound 0.253 µM): 0.783
relative viability (TGX 221 + Pictilisib; first compound 0.8 µM): 0.787
relative viability (TGX 221 + Pictilisib; first compound 2.53 µM): 0.723
relative viability (TGX 221 + Pictilisib; first compound 8 µM): 0.831
relative viability ([2]; first compound 0.253 µM): 0.577
relative viability ([2]; first compound 0.8 µM): 0.878
relative viability ([2]; first compound 2.53 µM): 0.83
relative viability ([2]; first compound 8 µM): 0.628
relative viability ([3]; first compound 0.08 µM): 0.429
relative viability ([3]; first compound 0.253 µM): 0.641
relative viability ([3]; first compound 0.8 µM): 0.503
relative viability ([3]; first compound 2.53 µM): 0.446
relative viability ([3]; first compound 8 µM): 0.437
